Patent publication US12466827B2, “1,3,4-oxadiazole derivative compounds as histone deacetylase 6 inhibitor, and the pharmaceutical composition comprising the same” (CHONG KUN DANG PHARMACEUTICAL CORP., priority 2020, dated 2025)

Assays:
[1] = target: T1, human recombinant HDAC1 (Homo sapiens, UniProt Q13547); experiment: In vitro HDAC enzyme activity inhibition assay (HDAC1); format: biochemical; details: Fluor de Lys-SIRT1 substrate 10 μM, 30° C., 60 minutes, fluorescence
T1 construct: purchased Enzo Life Sciences, Inc. BML-SE456
How it was run: (§1)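 Fluorimetric deacetylase kit: human recombinant HDAC1 or HDAC6 (0.3 μg) with 10 μM Fluor de Lys-SIRT1 substrate and 5-fold diluted compounds, 60 min at 30° C. Developer added for 30 min, fluorescence read at Ex 360/Em 460, IC50 calculated.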

[2] = target: T2, human recombinant HDAC6 (Homo sapiens, UniProt Q9UBN7); experiment: In vitro HDAC enzyme activity inhibition assay (HDAC6); format: biochemical; details: for HDAC6 selectivity (fold): HDAC6 over HDAC1; for IC50: same protocol as the HDAC1 test, human recombinant HDAC6 (Calbiochem)
T2 construct: purchased Calbiochem Inc. 382180
T2 sequence (Q9UBN7 1-1215): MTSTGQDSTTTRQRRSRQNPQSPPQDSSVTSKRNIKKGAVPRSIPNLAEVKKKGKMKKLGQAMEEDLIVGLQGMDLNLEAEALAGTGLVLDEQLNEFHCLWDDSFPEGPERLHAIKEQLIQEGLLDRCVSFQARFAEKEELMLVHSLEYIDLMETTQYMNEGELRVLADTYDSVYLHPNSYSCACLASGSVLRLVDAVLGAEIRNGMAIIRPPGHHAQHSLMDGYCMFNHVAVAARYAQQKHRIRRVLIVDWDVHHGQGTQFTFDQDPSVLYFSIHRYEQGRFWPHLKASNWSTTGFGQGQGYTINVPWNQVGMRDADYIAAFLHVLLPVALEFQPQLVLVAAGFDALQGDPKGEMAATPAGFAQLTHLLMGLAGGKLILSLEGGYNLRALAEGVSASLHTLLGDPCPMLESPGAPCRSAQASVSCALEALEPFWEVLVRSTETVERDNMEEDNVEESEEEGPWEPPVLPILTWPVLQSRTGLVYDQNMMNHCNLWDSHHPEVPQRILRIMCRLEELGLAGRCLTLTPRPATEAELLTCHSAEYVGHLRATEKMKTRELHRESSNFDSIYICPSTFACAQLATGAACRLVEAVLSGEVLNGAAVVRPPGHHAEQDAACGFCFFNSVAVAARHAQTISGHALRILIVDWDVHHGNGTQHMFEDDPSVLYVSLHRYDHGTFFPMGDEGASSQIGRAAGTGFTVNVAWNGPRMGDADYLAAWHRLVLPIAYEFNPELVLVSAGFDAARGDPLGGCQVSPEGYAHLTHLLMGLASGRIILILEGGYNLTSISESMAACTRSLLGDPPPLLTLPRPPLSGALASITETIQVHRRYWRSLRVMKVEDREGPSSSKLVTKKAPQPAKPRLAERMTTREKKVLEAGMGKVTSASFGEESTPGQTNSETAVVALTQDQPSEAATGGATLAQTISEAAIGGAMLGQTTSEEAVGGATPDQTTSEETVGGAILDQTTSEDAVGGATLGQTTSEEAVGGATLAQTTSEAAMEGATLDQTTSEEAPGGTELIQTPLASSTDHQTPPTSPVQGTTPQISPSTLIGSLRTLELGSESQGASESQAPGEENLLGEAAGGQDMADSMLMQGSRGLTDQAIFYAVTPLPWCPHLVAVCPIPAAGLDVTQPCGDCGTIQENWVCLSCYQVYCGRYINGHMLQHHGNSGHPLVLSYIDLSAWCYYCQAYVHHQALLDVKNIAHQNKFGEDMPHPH
How it was run: as §1

T1 sequence (Q13547 whole entry): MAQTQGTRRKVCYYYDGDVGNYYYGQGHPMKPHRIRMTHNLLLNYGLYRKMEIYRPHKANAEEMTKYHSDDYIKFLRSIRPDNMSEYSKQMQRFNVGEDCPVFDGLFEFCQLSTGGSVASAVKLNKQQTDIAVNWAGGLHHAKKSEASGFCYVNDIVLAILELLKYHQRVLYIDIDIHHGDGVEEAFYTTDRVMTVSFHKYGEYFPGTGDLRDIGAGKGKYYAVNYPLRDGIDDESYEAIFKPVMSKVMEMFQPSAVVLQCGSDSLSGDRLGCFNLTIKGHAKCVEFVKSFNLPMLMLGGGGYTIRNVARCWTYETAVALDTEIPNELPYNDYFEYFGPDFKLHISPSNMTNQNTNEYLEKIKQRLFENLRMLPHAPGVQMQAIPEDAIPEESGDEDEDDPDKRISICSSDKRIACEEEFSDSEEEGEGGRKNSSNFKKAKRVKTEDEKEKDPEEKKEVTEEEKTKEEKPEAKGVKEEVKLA

O=S(=O)(N1CCN(C2CCOCC2)CC1)N(Cc1cn2ccc(-c3nnc(C(F)F)o3)cc2n1)c1ccccc1 [Compound 4263, N-((7-(5-(difluoromethyl)-1,3,4-oxadiazol-2-yl)imidazo[1,2-a]pyridin-2-yl)methyl)-N-phenyl-1-(tetrahydro-2H-pyran-4-yl)piperazine-1-sulfonamide]
IC50 [1]: > 50000 nM
HDAC6 selectivity (fold) [2]: 397 fold
IC50 [2]: 126 nM

O=S(=O)(N1CCN(C2CCC(F)(F)CC2)CC1)N(Cc1cn2ccc(-c3nnc(C(F)F)o3)cc2n1)c1ccccc1 [Compound 4264]
IC50 [1]: > 50000 nM
HDAC6 selectivity (fold) [2]: 246 fold
IC50 [2]: 203 nM

CC(=O)N1CCN(S(=O)(=O)N(Cc2cn3ccc(-c4nnc(C(F)F)o4)cc3n2)c2ccccc2)CC1 [Compound 4265, 4-acetyl-N-((7-(5-(difluoromethyl)-1,3,4-oxadiazol-2-yl)imidazo[1,2-a]pyridin-2-yl)methyl)-N-phenylpiperazine-1-sulfonamide]
IC50 [1]: > 50000 nM
HDAC6 selectivity (fold) [2]: 585 fold
IC50 [2]: 85.5 nM

CCC(=O)N1CCN(S(=O)(=O)N(Cc2cn3ccc(-c4nnc(C(F)F)o4)cc3n2)c2ccccc2)CC1 [Compound 4266, N-((7-(5-(difluoromethyl)-1,3,4-oxadiazol-2-yl)imidazo[1,2-a]pyridin-2-yl)methyl)-N-phenyl-4-propionylpiperazine-1-sulfonamide]
IC50 [1]: > 50000 nM
HDAC6 selectivity (fold) [2]: 431 fold
IC50 [2]: 116 nM

O=C(CO)N1CCN(S(=O)(=O)N(Cc2cn3ccc(-c4nnc(C(F)F)o4)cc3n2)c2ccccc2)CC1 [Compound 4267, N-((7-(5-(difluoromethyl)-1,3,4-oxadiazol-2-yl)imidazo[1,2-a]pyridin-2-yl)methyl)-4-(2-hydroxyacetyl)-N-phenylpiperazine-1-sulfonamide]
IC50 [1]: > 50000 nM
HDAC6 selectivity (fold) [2]: 524 fold
IC50 [2]: 95.5 nM

O=C(C1CCC1)N1CCN(S(=O)(=O)N(Cc2cn3ccc(-c4nnc(C(F)F)o4)cc3n2)c2ccccc2)CC1 [Compound 4268, 4-(cyclobutanecarbonyl)-N-((7-(5-(difluoromethyl)-1,3,4-oxadiazol-2-yl)imidazo[1,2-a]pyridine-2-yl)methyl)-N-phenylpiperazine-1-sulfonamide]
IC50 [1]: > 50000 nM
HDAC6 selectivity (fold) [2]: 389 fold
IC50 [2]: 129 nM

O=C(C1COC1)N1CCN(S(=O)(=O)N(Cc2cn3ccc(-c4nnc(C(F)F)o4)cc3n2)c2ccccc2)CC1 [Compound 4269, N-((7-(5-(difluoromethyl)-1,3,4-oxadiazol-2-yl)imidazo[1,2-a]pyridin-2-yl)methyl)-4-(oxetan-3-carbonyl)-N-phenylpiperazine-1-sulfonamide]
IC50 [1]: > 50000 nM
HDAC6 selectivity (fold) [2]: 259 fold
IC50 [2]: 193 nM

O=C(N1CCN(S(=O)(=O)N(Cc2cn3ccc(-c4nnc(C(F)F)o4)cc3n2)c2ccccc2)CC1)C(F)(F)F [Compound 4270, N-((7-(5-(difluoromethyl)-1,3,4-oxadiazol-2-yl)imidazo[1,2-a]pyridin-2-yl)methyl)-N-phenyl-4-(2,2,2-trifluoroacetyl)piperazine-1-sulfonamide]
IC50 [1]: > 50000 nM
HDAC6 selectivity (fold) [2]: 327 fold
IC50 [2]: 153 nM

CS(=O)(=O)N1CCN(S(=O)(=O)N(Cc2cn3ccc(-c4nnc(C(F)F)o4)cc3n2)c2ccccc2)CC1 [Compound 4271, N-((7-(5-(difluoromethyl)-1,3,4-oxadiazol-2-yl)imidazo[1,2-a]pyridin-2-yl)methyl)-4-(methylsulfonyl)-N-phenylpiperazine-1-sulfonamide]
IC50 [1]: > 50000 nM
HDAC6 selectivity (fold) [2]: 215 fold
IC50 [2]: 232 nM

COC(=O)N1CCN(S(=O)(=O)N(Cc2cn3ccc(-c4nnc(C(F)F)o4)cc3n2)c2ccccc2)CC1 [Compound 4272, methyl 4-(N-((7-(5-(difluoromethyl)-1,3,4-oxadiazol-2-yl)imidazo[1,2-a]pyridin-2-yl)methyl)-N-phenylsulfamoyl)piperazine-1-carboxylate]
IC50 [1]: > 50000 nM
HDAC6 selectivity (fold) [2]: 298 fold
IC50 [2]: 168 nM

CN(C)C(=O)N1CCN(S(=O)(=O)N(Cc2cn3ccc(-c4nnc(C(F)F)o4)cc3n2)c2ccccc2)CC1 [Compound 4273, 4—(N-((7-(5-(difluoromethyl)-1,3,4-oxadiazol-2-yl)imidazo[1,2-a]pyridin-2-yl)methyl)-N-phenylsulfamoyl)-N, N-dimethylpiperazine-1-carboxamide]
IC50 [1]: > 50000 nM
HDAC6 selectivity (fold) [2]: 413 fold
IC50 [2]: 121 nM

O=S(=O)(N1CCN(c2ccccn2)CC1)N(Cc1cn2ccc(-c3nnc(C(F)F)o3)cc2n1)c1ccccc1 [Compound 4274, N-((7-(5-(difluoromethyl)-1,3,4-oxadiazol-2-yl)imidazo[1,2-a]pyridin-2-yl)methyl)-N-phenyl-4-(pyridin-2-yl)piperazine-1-sulfonamide]
IC50 [1]: > 50000 nM
HDAC6 selectivity (fold) [2]: 333 fold
IC50 [2]: 150 nM

O=S(=O)(N1CCN(c2ncccn2)CC1)N(Cc1cn2ccc(-c3nnc(C(F)F)o3)cc2n1)c1ccccc1 [Compound 4275, N-((7-(5-(difluoromethyl)-1,3,4-oxadiazol-2-yl)imidazo[1,2-a]pyridin-2-yl)methyl)-N-phenyl-4-(pyrimidin-2-yl)piperazine-1-sulfonamide]
IC50 [1]: > 50000 nM
HDAC6 selectivity (fold) [2]: 351 fold
IC50 [2]: 142 nM

CN1CCN(S(=O)(=O)N(Cc2cn3ccc(-c4nnc(C(F)F)o4)cc3n2)c2cccc(F)c2)CC1 [Compound 4297, N-((7-(5-(difluoromethyl)-1,3,4-oxadiazol-2-yl)imidazo[1,2-a]pyridin-2-yl)methyl)-N-(3-fluorophenyl)-4-methylpiperazine-1-sulfonamide]
IC50 [1]: > 50000 nM
HDAC6 selectivity (fold) [2]: 561 fold
IC50 [2]: 89.2 nM

CCN1CCN(S(=O)(=O)N(Cc2cn3ccc(-c4nnc(C(F)F)o4)cc3n2)c2cccc(F)c2)CC1 [Compound 4298, N-((7-(5-(difluoromethyl)-1,3,4-oxadiazol-2-yl)imidazo[1,2-a]pyridin-2-yl)methyl)-4-ethyl-N-(3-fluorophenyl)-piperazine-1-sulfonamide]
IC50 [1]: > 50000 nM
HDAC6 selectivity (fold) [2]: 631 fold
IC50 [2]: 79.2 nM

CC(C)N1CCN(S(=O)(=O)N(Cc2cn3ccc(-c4nnc(C(F)F)o4)cc3n2)c2cccc(F)c2)CC1 [Compound 4299, N-((7-(5-(difluoromethyl)-1,3,4-oxadiazol-2-yl)imidazo[1,2-a]pyridin-2-yl)methyl)-N-(3-fluorophenyl)-4-isopropylpiperazine-1-sulfonamide]
IC50 [1]: > 50000 nM
HDAC6 selectivity (fold) [2]: 488 fold
IC50 [2]: 102 nM

CC(CO)N1CCN(S(=O)(=O)N(Cc2cn3ccc(-c4nnc(C(F)F)o4)cc3n2)c2cccc(F)c2)CC1 (stereo not drawn) [Compound 4300, N-((7-(5-(difluoromethyl)-1,3,4-oxadiazol-2-yl)imidazo[1,2-a]pyridin-2-yl)methyl)-N-(3-fluorophenyl)-4-(1-hydroxypropan-2-yl)piperazine-1-sulfonamide]
IC50 [1]: > 50000 nM
HDAC6 selectivity (fold) [2]: 410 fold
IC50 [2]: 122 nM

O=S(=O)(N1CCN(C2CCC2)CC1)N(Cc1cn2ccc(-c3nnc(C(F)F)o3)cc2n1)c1cccc(F)c1 [Compound 4301, 4-cyclobutyl-N-((7-(5-(difluoromethyl)-1,3,4-oxadiazol-2-yl)imidazo[1,2-a]pyridin-2-yl)methyl)-N-(3-fluorophenyl)piperazine-1-sulfonamide]
IC50 [1]: > 50000 nM
HDAC6 selectivity (fold) [2]: 595 fold
IC50 [2]: 84.1 nM

O=S(=O)(N1CCN(C2COC2)CC1)N(Cc1cn2ccc(-c3nnc(C(F)F)o3)cc2n1)c1cccc(F)c1 [Compound 4302]
IC50 [1]: > 50000 nM
HDAC6 selectivity (fold) [2]: 737 fold
IC50 [2]: 67.8 nM
